This is an account of results in ChEMBL document CHEMBL1614631, “Comparative evaluation of oral systemic exposure of 56 xenobiotics in rat, dog, monkey and human” (Xenobiotica, 2005).

Series [1] in a line: Dose normalised AUC in monkey after po administration. Conditions: macaca, in vivo.
Series [2] is described as follows: Dose normalised AUC in rat after po administration. Conditions: in vivo.
A short description of series [3]: Dose normalised AUC in dog after po administration. Conditions: in vivo.
Series [4] in a line: Dose normalised AUC in human after po administration. Conditions: in vivo.

Structures are written as SMILES.

`COC(=O)C1=C(C)NC(C)=C(C(=O)OCCN(C)Cc2ccccc2)C1c1cccc([N+](=O)[O-])c1` (stereo unspecified) [NICARDIPINE]: the DNAUC in series [1] was 3.84 kg·min/L; in series [2] it was 1.1 kg·min/L; in series [3], 2 kg·min/L; in series [4] it was 10 kg·min/L.

`COC(=O)C1=C(C)NC(C)=C(C(=O)OCC(C)C)C1c1ccccc1[N+](=O)[O-]` (stereo unspecified) [NISOLDIPINE]: the DNAUC was 0.84 kg·min/L in series [1], 0.49 kg·min/L in series [2], 2.64 kg·min/L in series [3] and 1.2 kg·min/L in series [4].

In the case of `CS(=O)(=O)Nc1ccc(F)c([C@@H](O)CN)c1` [NS-49], the DNAUC in series [1] was 165.6 kg·min/L; in series [2], 33.3 kg·min/L; in series [3], 382.2 kg·min/L; in series [4] it was 306 kg·min/L.

In the case of `CC1COc2c(N3CCN(C)CC3)c(F)cc3c(=O)c(C(=O)O)cn1c23` (stereo unspecified) [OFLOXACIN], the DNAUC in series [1] came out at 218.1 kg·min/L; in series [2], 32.85 kg·min/L; in series [3] it was 407.7 kg·min/L; in series [4] it was 297.93 kg·min/L.

Consider `O=C(O)CCc1nc(-c2ccccc2)c(-c2ccccc2)o1` [OXAPROZIN], for which the DNAUC in series [1] is 2.85 kg·min/L; in series [2], 0.04 kg·min/L; in series [3] it was 3.2 kg·min/L; in series [4] it was 9.07 kg·min/L.

In the case of `CCn1cc(C(=O)O)c(=O)c2cc(F)c(N3CCN(C)CC3)cc21` [PEFLOXACIN], the DNAUC is 259.2 kg·min/L in series [1], 67.2 kg·min/L in series [2], 120 kg·min/L in series [3] and 505.26 kg·min/L in series [4].

Regarding `Cc1nc(=O)c(C#N)c(NCc2cccnc2)[nH]1` [PELRINONE], the DNAUC in series [1] worked out at 39.2 kg·min/L; in series [2] it was 20 kg·min/L; in series [3] it was 84 kg·min/L; in series [4], 152.38 kg·min/L.

Consider `CC(C)NCC(O)COc1cccc2ccccc12` (stereo unspecified) [PROPRANOLOL], for which the DNAUC was determined as 1.32 kg·min/L in series [1], 37.8 kg·min/L in series [2], 8.32 kg·min/L in series [3] and 17.33 kg·min/L in series [4].

Turning to `Cc1cccc(C)c1NC(=O)NCCCNC(C)C` [RECAINAM], the DNAUC in series [1] is 48 kg·min/L; in series [2] it was 6.3 kg·min/L; in series [3] it was 72.4 kg·min/L; in series [4], 98.57 kg·min/L.

Take `CC(C)(C)S(=O)(=O)C[C@@H](Cc1ccccc1)C(=O)N[C@@H](Cc1cnc[nH]1)C(=O)N[C@@H](CC1CCCCC1)[C@@H](O)[C@@H](O)C1CC1` [REMIKIREN]: the DNAUC in series [1] was 0.14 kg·min/L; in series [2] it was 0.25 kg·min/L; in series [3] it was 0.63 kg·min/L; in series [4], 0.2 kg·min/L.

As for `CC(C)c1nc(CN(C)C(=O)N[C@H](C(=O)N[C@@H](Cc2ccccc2)C[C@H](O)[C@H](Cc2ccccc2)NC(=O)OCc2cncs2)C(C)C)cs1` [RITONAVIR], the DNAUC in series [1] is 27.18 kg·min/L; in series [2], 41.59 kg·min/L; in series [3], 101.08 kg·min/L; in series [4] it was 370.17 kg·min/L.

As to `COc1nccc(-c2c(-c3ccc(F)cc3)ncn2C2CCNCC2)n1` [SB-242235], the DNAUC in series [1] worked out at 115.9 kg·min/L; in series [2] it was 37.61 kg·min/L; in series [3] it was 147.59 kg·min/L; in series [4], 141 kg·min/L.

With `CN1C(C(=O)Nc2nccs2)=C(O)c2ccccc2S1(=O)=O` [SUDOXICAM], the DNAUC in series [1] came out at 3821.3 kg·min/L; in series [2] it was 4415.2 kg·min/L; in series [3], 5554 kg·min/L; in series [4] it was 8161.43 kg·min/L.

With `CC(C(=O)O)c1ccc(C(=O)c2cccs2)cc1` (stereo unspecified) [SUPROFEN], the DNAUC in series [1] worked out at 355 kg·min/L; in series [2], 320 kg·min/L; in series [3], 1108 kg·min/L; in series [4], 619.76 kg·min/L.
